Source: patent US9783518B2, “Therapeutic agent and treatment method for ameliorating uremia” (Toray Industries, Inc., priority 2005, dated 2017)
“Also recorded” adds a separate entry of the source.

Experiments:
[1] = tested on: cats with renal failure; test: Body weight of cats with renal failure during administration; type: in vivo, cat
Method: […] The administration was conducted every day and continued basically for 6 months, and in cases where the owner desired, the administration was continued even after the test period. The Examples of the present invention include both cases where the dosing period was less than 6 months and more than 6 months.

[2] = tested on: dog with chronic renal failure; test: Adverse events in dog with chronic renal failure (Case-H); type: in vivo; conditions: 150 μg/capsule oral twice a day alone
Method: The subject patient to whom beraprost sodium was to be administered was a female dog (hybrid) of 14 years old with a body weight of 6.4 kg. The patient visited the hospital with chief complaints of anorexia and drastic decrease in activity. Based on the past history, clinical observations and results of clinical test, the dog was diagnosed as chronic renal failure. The clinical score at the first visit was as low as 2 points, and treatment with Covalzin at a dose of 200 mg/BID was started. […] In view of this, after obtaining consent by the client, treatment with Covalzin was stopped, and switched to administration of beraprost sodium alone. Beraprost sodium was diluted with polyethylene glycol (Wako) to attain a dose of 150 μg/capsule, and was divided into capsules (size 5 Shionogi Qualicaps). Beraprost sodium was orally administered twice a day at fasting. […] In the above-described series of therapy, feeding of a formula meal and infusion were not performed at all. […] Based on the above, it was first discovered that in chronic renal failure of dogs, in addition to cats, the effect of beraprost sodium to ameliorate uremic symptoms is clearly shown in spite of the fact that Serum Cre value and BUN value which are markers of renal function indicative of renal failure are continuously worsened.

[3] = tested on: dog with chronic renal failure; test: Clinical score of uremic symptoms in dog with chronic renal failure (Case-H); type: in vivo
Method: Testing methods for the patients showing uremia caused by chronic renal failure, employed in Example 4 or later, will now be described. The criteria and evaluation items for the cats and dogs with chronic renal failure are as follows: Diagnosis of uremia and chronic renal failure were performed totally taking clinical findings (including findings of uremia) and the results of the blood test, blood biochemical analysis and urinalysis into consideration. As the clinical findings of uremia, existence and degree of polydipsia and diuresis, dehydration, anorexia, weight loss, vomiting symptom and state of dehydration were observed. Existence of chronic renal failure was judged based on the serum Cre value as generally employed. As reference data for grasping the degree of progress of chronic renal failure, BUN value was also monitored.
Evaluation of degree of improvement of the uremic symptoms was carried out as follows: From the clinical symptoms related to uremia, activity and appetite, which are unlikely to be overlooked and which can be observed universally from before to after the test period, were selected. […] The evaluation was carried out based on the total points (full points were 5 points). Thus, a higher point indicates more improvements in the clinical symptoms. […]

[4] = tested on: dog with chronic renal failure; test: BUN and serum Cre in dog with chronic renal failure (Case-H); type: in vivo; conditions: 150 μg/capsule oral twice a day alone
Method: In the blood test, RBC, WBC, PCV, Hg and PLT were measured. In the blood biochemical analysis, TP, Tcho, AST, ALT, ALP, Tbil, BUN, creatinine, calcium, inorganic phosphorus, glucose, sodium ion, potassium ion and chloride ion were measured. In the urinalysis, protein amount, pH, occult blood, bilirubin and glucose were measured. To eliminate the circadian rhythm and influence by meals on the values of blood biochemical markers, every blood collection was carried out in the morning before feeding (at fasting).
As a more specific criterion for chronic renal failure in cats and dogs in the present Examples, a serum Cre value of 1.4 mg/dL in the blood test was employed. Serum Cre value was measured by creatinine deaminase-amidohydrolase method, and the BUN value as reference data for grasping the degree of progress of chronic renal failure was measured by urease-GLDH method.

[5] = tested on: cats with chronic renal failure; test: Blood biochemical analysis and urinalysis (BUN, serum Cre, glucose) in cats with chronic renal failure; type: in vivo, cat; conditions: Case-G; for Cre: 40 μg/head/BID

## CC#CC[C@@H](C)[C@H](O)/C=C/[C@@H]1[C@H]2c3cccc(CCCC(=O)[O-])c3O[C@H]2C[C@H]1O.[Na+] (mixture of isomers) [beraprost sodium, Sodium rac-(1R,2R,3aS,8bS)-2,3,3a,8b-tetrahydro-2-hydroxy-1-[(E)-(3S,4RS)-3-hydroxy-4-methyloct-1-en-6-ynyl]-1H-cyclopenta[b][1]benzofuran-5-butanoate]
[1]; Case-A, age 5, month 0
  Changes in Body Weight during Administration of Beraprost Sodium: 5.2 kg
[1]; Case-A, month 1
  Changes in Body Weight during Administration of Beraprost Sodium: 5.5 kg
[1]; Case-A, month 2
  Changes in Body Weight during Administration of Beraprost Sodium: 5.5 kg
[1]; Case-A, month 3
  Changes in Body Weight during Administration of Beraprost Sodium: 5.5 kg
[1]; Case-A, month 4
  Changes in Body Weight during Administration of Beraprost Sodium: 5.7 kg
[1]; Case-A, month 5
  Changes in Body Weight during Administration of Beraprost Sodium: 5.7 kg
[1]; Case-A, month 6
  Changes in Body Weight during Administration of Beraprost Sodium: 6.0 kg
[1]; Case-B, age 4, month 0
  Changes in Body Weight during Administration of Beraprost Sodium: 3.5 kg
[1]; Case-B, month 1
  Changes in Body Weight during Administration of Beraprost Sodium: 3.6 kg
[1]; Case-B, month 2
  Changes in Body Weight during Administration of Beraprost Sodium: 3.6 kg
[1]; Case-B, month 3
  Changes in Body Weight during Administration of Beraprost Sodium: 3.7 kg
[1]; Case-B, month 4
  Changes in Body Weight during Administration of Beraprost Sodium: 3.9 kg
[1]; Case-B, month 5
  Changes in Body Weight during Administration of Beraprost Sodium: 4.0 kg
[1]; Case-B, month 6
  Changes in Body Weight during Administration of Beraprost Sodium: 4.0 kg
[1]; Case-B, with amelioration of uremic symptoms
  body weight: increased
[1]; Case-C, age 16, month −1 (before administration)
  Changes in Body Weight during Administration of Beraprost Sodium: 2.8 kg
[1]; Case-C, month 0
  Changes in Body Weight during Administration of Beraprost Sodium: 2.7 kg
[1]; Case-C, month 1
  Changes in Body Weight during Administration of Beraprost Sodium: 2.8 kg
[1]; Case-C, month 2
  Changes in Body Weight during Administration of Beraprost Sodium: 2.9 kg
[1]; Case-C, month 3
  Changes in Body Weight during Administration of Beraprost Sodium: 2.9 kg
[1]; Case-C, month 4
  Changes in Body Weight during Administration of Beraprost Sodium: 2.9 kg
[1]; Case-C, month 5
  Changes in Body Weight during Administration of Beraprost Sodium: 3.0 kg
[1]; Case-C, month 6
  Changes in Body Weight during Administration of Beraprost Sodium: 3.0 kg
[1]; Case-D, age 17, month −1 (before administration)
  Changes in Body Weight during Administration of Beraprost Sodium: 4.5 kg
[1]; Case-D, after one month
  body weight: increased
[1]; Case-D, month 0
  Changes in Body Weight during Administration of Beraprost Sodium: 4.5 kg
[1]; Case-D, month 1
  Changes in Body Weight during Administration of Beraprost Sodium: 4.5 kg
[1]; Case-D, month 2
  Changes in Body Weight during Administration of Beraprost Sodium: 4.9 kg
[1]; Case-D, month 3
  Changes in Body Weight during Administration of Beraprost Sodium: 4.9 kg
[1]; Case-D, month 4
  Changes in Body Weight during Administration of Beraprost Sodium: 4.9 kg
[1]; Case-D, month 5
  Changes in Body Weight during Administration of Beraprost Sodium: 4.9 kg
[1]; Case-E, age 14, combination therapy, month 0
  Changes in Body Weight during Administration of Beraprost Sodium: 3.5 kg
[1]; Case-E, combination therapy, month 1
  Changes in Body Weight during Administration of Beraprost Sodium: 3.8 kg
[1]; Case-E, combination therapy, month 2
  Changes in Body Weight during Administration of Beraprost Sodium: 3.7 kg
[1]; Case-E, combination therapy, month 3
  Changes in Body Weight during Administration of Beraprost Sodium: 3.6 kg
[1]; Case-E, combination therapy, month 4
  Changes in Body Weight during Administration of Beraprost Sodium: 3.7 kg
[1]; Case-E, combination therapy, month 5
  Changes in Body Weight during Administration of Beraprost Sodium: 3.7 kg
[1]; Case-E, combination therapy, month 6
  Changes in Body Weight during Administration of Beraprost Sodium: 3.6 kg
[1]; Case-F, age 11, combination therapy, month 0
  Changes in Body Weight during Administration of Beraprost Sodium: 4.7 kg
[1]; Case-F, combination therapy, month 1
  Changes in Body Weight during Administration of Beraprost Sodium: 5.0 kg
[1]; Case-F, combination therapy, month 2
  Changes in Body Weight during Administration of Beraprost Sodium: 5.0 kg
[1]; Case-F, combination therapy, month 3
  Changes in Body Weight during Administration of Beraprost Sodium: 5.5 kg
[1]; Case-F, combination therapy, month 4
  Changes in Body Weight during Administration of Beraprost Sodium: 5.5 kg
[1]; Case-F, combination therapy, month 5
  Changes in Body Weight during Administration of Beraprost Sodium: 5.7 kg
[1]; Case-F, combination therapy, month 6
  Changes in Body Weight during Administration of Beraprost Sodium: 5.8 kg
[1]; Case-G, 40 μg/head/BID, Day 14
  body weight: 3.83 kg
[1]; Case-G, 40 μg/head/BID, Day 56
  body weight: 3.95 kg
[1]; Case-G, before the administration (baseline)
  body weight: 3.2 kg
[2]
  adverse events such as diarrhea, vomiting: no adverse event; also recorded: no adverse action
[3]; 150 μg/capsule oral twice a day alone, first month, 3 points before
  clinical score (full points 5): 4 points
[3]; after start of beraprost sodium alone
  uremic symptoms: quickly remitted and ameliorated
[4]
  BUN: did not almost change
  serum Cre value: continuously increased
[5]; 40 μg/head/BID tablets alone
  BUN value: almost kept constant
[5]; Day 28
  Cre: 2.79 mg/dL
[5]; Day 56
  Cre: 3.02 mg/dL
